# Test results taken from patent US20230039836A1, “AROMATIC SULPHONAMIDES DERIVATIVES THAT INHIBITS PDI A3, THEIR SYNTHESIS AND USE” (Uniwersytet Jagiellonski, priority 2020, published 2023).
# Several values for one entry are separate records, joined by “and”; a condition that tells them apart may be missing. Equal values may be shown once. Read-outs that look alike come from different tables or passages of the source.
# How the values were obtained:
# Caco-2 = assay: Sulforhodamine B antiproliferative assay, 72 h; type: cell-based, human; conditions: Homo sapiens, Caco-2; normal (21% of oxygen), 72-hour exposition
# Experimental: In the experiment, cells were seeded on 96-well plates (Sarstedt, Germany) in appropriate culture medium at a density of 10^5 cells/mL 24 h before adding the tested compounds. Cells were treated with each compound in four concentrations in the range 0.1-100 ug/mL. […] Briefly, cells were fixed with 50 µL/well of 50% (w/v) trichloroacetic acid (Avantor Performance Materials, Gliwice, Poland). After 1 h incubation, plates were washed several times with tap water and 50 µL of 0.4% (w/v) solution of sulforhodamine B (Sigma-Aldrich, Germany) in 1% (v/v) acetic acid (Avantor Performance Materials, Gliwice, Poland) was added to each well. After 30 min incubation at room temperature, unbound dye was washed out with 1% (v/v) acetic acid, whereas bound dye was solubilized with 10 mM unbuffered TRIS (Avantor Performance Materials, Gliwice, Poland) solution. […] After additional 30 min, absorbance was read using a Biotek Hybrid H4 reader (BioTek Instruments, USA) at 540 nm wavelength.
# [1] = system: arterial thrombosis, right common carotid artery; assay: Rat model of arterial thrombosis; type: in vivo; conditions: Wistar rats, FIG. 6, dose as low as
# Experimental: To confirm antithrombotic activity of compounds of invention, inhibitors of PDIA1, pharmacological activity of selected compounds was tested in vivo in the rat model of arterial thrombosis . Wistar rats were anaesthetized with pentobarbital (40 mg/kg, i.p.) and placed in a supine position on a heated (37° C.) operating table. Arterial thrombosis was induced by electrical stimulation of the right common carotid artery, as previously described (Kramkowski et al., 2012). Briefly, the anode, a stainless steel L-shaped wire, was inserted under the artery and connected to a constant current generator. The cathode was attached subcutaneously to the hind limb. The artery was stimulated (1 mA) for 10 min. Fifty-five minutes after the beginning of stimulation, the segment of the common carotid artery containing the formed thrombus was dissected and opened lengthwise, and the thrombus was completely removed and air-dried at room temperature for 24 h. Thrombus was then weighed in a blinded manner.
# HT-29 = assay: Sulforhodamine B antiproliferative assay, 72 h; type: cell-based, human; conditions: Homo sapiens, HT-29; normal (21% of oxygen), 72-hour exposition
# Experimental: (§1) Anticancer activity of PDI A1-inhibitors has been also tested in vitro in antiproliferative essay in normoxic and hypoxic conditions as well in estrogen-stimulated cancer cells. In the experiment, cells were seeded on 96-well plates (Sarstedt, Germany) in appropriate culture medium at a density of 10^5 cells/mL 24 h before adding the tested compounds. Cells were treated with each compound in four concentrations in the range 0.1-100 ug/mL. […] After 72 h of compound treatment at 37° C., 5 % CO2 humid atmosphere and in wo different oxygen level conditions: 21% - normal and <1% - hypoxia. In some experiments, the MDA-MB-231 and MCF-7 cells were seeded with or without 200 nM estradiol and after 24 h the tested compounds were added. A previously described sulforhodamine B antiproliferative assay was used with minor modifications (Skehan P et al., 1990). Briefly, cells were fixed with 50 µL/well of 50% (w/v) trichloroacetic acid (Avantor Performance Materials, Gliwice, Poland). After 1 h incubation, plates were washed several times with tap water and 50 µL of 0.4% (w/v) solution of sulforhodamine B (Sigma-Aldrich, Germany) in 1% (v/v) acetic acid (Avantor Performance Materials, Gliwice, Poland) was added to each well. After 30 min incubation at room temperature, unbound dye was washed out with 1% (v/v) acetic acid, whereas bound dye was solubilized with 10 mM unbuffered TRIS (Avantor Performance Materials, Gliwice, Poland) solution. The entire procedure was performed using a BioTek EL-406 washing station (BioTek Instruments, USA). After additional 30 min, absorbance was read using a Biotek Hybrid H4 reader (BioTek Instruments, USA) at 540 nm wavelength. MTT assay was used alternatively for HL-60 cell line and in the experiment in which estrogens are added (specified in the table legend). Absorbance was measured using a Biotek Hybrid H4 reader at 570 nm wavelength for MTT assay.
# (§2) Compounds at each concentration were tested in triplicate in a single experiment and each experiment was repeated at least three times independently.
# (§3) Results of in vitro antiproliferative effects are shown in Table 3 and Table 4 and are presented as mean IC50 ± SD calculated using the Prolab-3 system based on Cheburator 0.4 software.
# MDA-MB-231 = assay: Sulforhodamine B antiproliferative assay, 72 h, normal and hypoxia; type: cell-based, human; conditions: Homo sapiens, MDA-MB-231, 72-hour exposition
# Experimental: as §1, §2, §3
# MCF-7 = assay: as above; type: cell-based, human; conditions: Homo sapiens, MCF7, 72-hour exposition
# Experimental: as §1, §2, §3
# [2] = system: Lewis Lung Carcinoma (LLC); assay: Murine model of Lewis Lung Carcinoma; type: in vivo, mice
# Experimental: To confirm anticancer activity of selected compounds of invention, PDI A1-inhibitors in vivo, selected compounds of invention were tested in the murine model of Lewis Lung Carcinoma (LLC). The Lewis Lung Carcinoma (LLC) cell line was obtained from the ATCC collection and was cultured in a humidified atmosphere of 5% CO2 at 37° using Dulbecco’s modified Eagle’s medium (DMEM) that contained 10% bovine serum (Sigma). Female (6-8 weeks old) C57BL/6 mice (purchased from Envigo RMS. BV., Nederland) were acclimated for one week and were fed with animal chow and water ad libitum. The C57BL/6 mice were injected s.c. with 0.5 × 10^5 LLC cells per mice in 100 µL PBS. Compounds were dissolved in DMSO and then 0.9% NaCl (DMSO final concentration 1%) were added. In each treatment group, i.p. injections of 100 µl compound were started on 1 day after tumor inoculation. Control animals injected with equal volume of 0.9% NaCl with 1% DMSO administered in the same schedule as other groups. Tumor larger radius (a) and smaller radius (b) were measured by calipers. The tumor volume (Tv) was calculated according the following formulaTv = V=4 • ab2/3. The mice in control group were sacrificed 17 days after tumor establishment. Tumor tissues were dissected, weighed and frozen in OCT compound.
# [3] = C57BL/6 mice, LLC s.c., 75 mg/kg i.p., 5 animals
# [4] = C57BL/6 mice, LLC s.c., 75 mg/kg i.p., single animals, 75 mg/kg
compound,measurement,setting,value
"CCCCc1ccc(S(=O)(=O)N2CC2C(=O)OC)cc1 (stereo not drawn) [Compound C-3257, Methyl 1-(4-butylphenyl)sulfonylaziridine-2-carboxylate]",IC50,Caco-2,9.8 ± 3.8 µg/mL
same,Dose at which effect on thrombus formation was significant and pronounced,[1],0.03 µmol/kg
same,IC50,HT-29,23.8 ± 4.8 µg/mL
same,IC50,"MDA-MB-231; hypoxia (<1% of oxygen), read-out: IC50 [µg/ml] MDA-MB-231 hypoxia",13.5 ± 4 µg/mL
same,IC50,"MDA-MB-231; normal (21% of oxygen), read-out: IC50 [µg/ml] MDA-MB-231 normal",9.9 ± 2.8 µg/mL
same,IC50,"MCF-7; hypoxia (<1% of oxygen), read-out: IC50 [µg/ml] MCF-7 hypoxia",17.1 ± 7.4 µg/mL
same,IC50,"MCF-7; normal (21% of oxygen), read-out: IC50 [µg/ml] MCF-7 normal",20.8 ± 6.6 µg/mL
same,"Tumor volume average±stdev, day 10",[2]; [3],66±147 mm3
same,"Tumor volume average±stdev, day 12",[2]; [3],208±287 mm3
same,"Tumor volume average±stdev, day 14",[2]; [3],462±264 mm3
same,"Tumor volume average±stdev, day 16",[2]; [3],686±108 mm3
same,"Tumor volume average±stdev, day 17",[2]; [3],1097±482 mm3
same,"Individual tumor volumes, day 10",[2]; [4],0 mm3 (4×) and 329 mm3
same,"Individual tumor volumes, day 12",[2]; [4],572 mm3 and 0 mm3 (3×) and 468 mm3
same,"Individual tumor volumes, day 14",[2]; [4],594 mm3 and 0 mm3 and 537 mm3 and 657 mm3 and 523 mm3
same,"Individual tumor volumes, day 16",[2]; [4],794 mm3 and 548 mm3 and 601 mm3 and 772 mm3 and 717 mm3
same,"Individual tumor volumes, day 17",[2]; [4],674 mm3 and 882 mm3 and 1016 mm3 (2×) and 986 mm3
same,Anti-cancer activity in vivo,"[2]; LLC model, Tables 6 and 7",possess anti-cancer activity in vivo
